What all share (assay): relative viability (nuclei count vs DMSO), 5 days (fraction); higher = more cells survive
Compound in one experiment: OCc1c[nH]c2ccccc12 [Indole-3-carbinol]
A digest of the protocol: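 Lung cancer cell lines were seeded into 1536-well plates, kept overnight at 37 °C and pinned with five library-drug doses (not always all listed) spaced by √10. After 5 days, nuclei were Hoechst-stained, imaged at 4× and counted with MetaXpress. Viability is treated-well nuclei over vehicle-well nuclei, taken as a median across plates. Plates needed control CV below 25% and at least one doubling.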

Compound in experiment [1]: OCc1c[nH]c2ccccc12 [Indole-3-carbinol] + Cc1nc(Nc2ncc(C(=O)Nc3c(C)cccc3Cl)s2)cc(N2CCN(CCO)CC2)n1 [Dasatinib] (partner 0.075 µM)
A digest of the protocol:
(§1)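 Relative viability was taken as the ratio of nuclei in treated wells to nuclei in vehicle wells. Lung cancer cell lines in 1536-well plates received compounds by pin tool one day after seeding, either one drug alone or a fixed anchor-drug dose plus five library-drug doses (not always all listed) in √10 steps. Nuclei were counted on 4× images after 5 days of treatment, and values are medians of duplicate plates.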

Compound in experiment [2]: OCc1c[nH]c2ccccc12 [Indole-3-carbinol] + O=C(c1cc(Cc2n[nH]c(=O)c3ccccc23)ccc1F)N1CCN(C(=O)C2CC2)CC1 [Olaparib] (partner 8 µM)
A digest of the protocol:
as §1

Compound in experiment [3]: OCc1c[nH]c2ccccc12 [Indole-3-carbinol] + Cc1nc(NC(=O)N2CCC[C@H]2C(N)=O)sc1-c1ccnc(C(C)(C)C(F)(F)F)c1 [Alpelisib] (partner 2 µM)
A digest of the protocol: as §1

Compound in experiment [4]: OCc1c[nH]c2ccccc12 [Indole-3-carbinol] + C[C@@H](Oc1cc(-c2cnn(C3CCNCC3)c2)cnc1N)c1c(Cl)ccc(F)c1Cl [Crizotinib] (partner 1 µM)
A digest of the protocol: as §1

As to BEN, the relative viability with Indole-3-carbinol (0.253 µM) worked out at 0.941; with Indole-3-carbinol (0.8 µM), 0.998; with Indole-3-carbinol (2.53 µM), 1.03; with Indole-3-carbinol (8 µM), 0.91; in experiment [1] (first compound 0.253 µM) it was 0.334; in experiment [1] (first compound 0.8 µM), 0.351. Moreover, the relative viability worked out at 0.318 in experiment [1] (first compound 2.53 µM); 0.294 in experiment [1] (first compound 8 µM); 1.09 in experiment [2] (first compound 0.253 µM); 1.05 in experiment [2] (first compound 0.8 µM); 1.12 in experiment [2] (first compound 2.53 µM); 1.06 in experiment [2] (first compound 8 µM). In addition, the relative viability in experiment [3] (first compound 0.253 µM) came to 0.948; in experiment [3] (first compound 0.8 µM) it was 0.808; in experiment [3] (first compound 2.53 µM) it was 1.02; in experiment [3] (first compound 8 µM), 0.929; in experiment [4] (first compound 0.253 µM) it was 0.857; in experiment [4] (first compound 0.8 µM), 0.722. In addition, the relative viability amounted to 0.917 in experiment [4] (first compound 2.53 µM) and 0.743 in experiment [4] (first compound 8 µM).
For CAL-12T, the relative viability worked out at 0.971 with Indole-3-carbinol (0.253 µM); 1.07 with Indole-3-carbinol (0.8 µM); 0.986 with Indole-3-carbinol (2.53 µM); 0.922 in the experiment with Indole-3-carbinol (8 µM); 0.385 in experiment [1] (first compound 0.253 µM); 0.53 in experiment [1] (first compound 0.8 µM). Further, the relative viability in experiment [1] (first compound 2.53 µM) was found to be 0.536; in experiment [1] (first compound 8 µM) it was 0.366; in experiment [2] (first compound 0.253 µM) it was 0.672; in experiment [2] (first compound 0.8 µM) it was 0.834; in experiment [2] (first compound 2.53 µM), 0.717; in experiment [2] (first compound 8 µM) it was 0.66. Moreover, the relative viability in experiment [3] (first compound 0.253 µM) worked out at 1.04; in experiment [3] (first compound 0.8 µM), 1.61; in experiment [3] (first compound 2.53 µM), 1.47; in experiment [3] (first compound 8 µM), 1.17; in experiment [4] (first compound 0.253 µM), 0.657; in experiment [4] (first compound 0.8 µM), 0.866. Besides, the relative viability in experiment [4] (first compound 2.53 µM) came out at 0.718; in experiment [4] (first compound 8 µM), 0.639.
Consider COR-L23, for which the relative viability came out at 1.06 with Indole-3-carbinol (0.253 µM); 1.09 in the experiment with Indole-3-carbinol (0.8 µM); 1.08 with Indole-3-carbinol (2.53 µM); 0.934 with Indole-3-carbinol (8 µM); 0.505 in experiment [1] (first compound 0.253 µM); 0.571 in experiment [1] (first compound 0.8 µM). Besides, the relative viability came to 0.586 in experiment [1] (first compound 2.53 µM); 0.542 in experiment [1] (first compound 8 µM); 0.37 in experiment [2] (first compound 0.253 µM); 0.411 in experiment [2] (first compound 0.8 µM); 0.372 in experiment [2] (first compound 2.53 µM); 0.31 in experiment [2] (first compound 8 µM). The relative viability in experiment [3] (first compound 0.253 µM) is 0.818; in experiment [3] (first compound 0.8 µM) it was 1.06; in experiment [3] (first compound 2.53 µM), 0.673; in experiment [3] (first compound 8 µM) it was 0.601; in experiment [4] (first compound 0.253 µM), 0.751; in experiment [4] (first compound 0.8 µM) it was 0.724. Besides, the relative viability in experiment [4] (first compound 2.53 µM) is 0.748; in experiment [4] (first compound 8 µM) it was 0.485.
In the case of COR-L 105, the relative viability in the experiment with Indole-3-carbinol (0.253 µM) stood at 0.964; with Indole-3-carbinol (0.8 µM), 0.845; in the experiment with Indole-3-carbinol (2.53 µM), 0.958; in the experiment with Indole-3-carbinol (8 µM), 0.844; in experiment [1] (first compound 0.253 µM), 0.368; in experiment [1] (first compound 0.8 µM), 0.337. The relative viability in experiment [1] (first compound 2.53 µM) turned out to be 0.396; in experiment [1] (first compound 8 µM), 0.301; in experiment [2] (first compound 0.253 µM), 0.642; in experiment [2] (first compound 0.8 µM), 0.655; in experiment [2] (first compound 2.53 µM), 0.713; in experiment [2] (first compound 8 µM), 0.685. Moreover, the relative viability in experiment [3] (first compound 0.253 µM) turned out to be 1.07; in experiment [3] (first compound 0.8 µM), 1.21; in experiment [3] (first compound 2.53 µM), 0.925; in experiment [3] (first compound 8 µM), 0.979; in experiment [4] (first compound 0.253 µM) it was 0.93; in experiment [4] (first compound 0.8 µM), 0.681. In addition, the relative viability turned out to be 0.781 in experiment [4] (first compound 2.53 µM) and 0.731 in experiment [4] (first compound 8 µM).

The values above are taken from the supplement of paper PMC10307832.
